From article PMC11972359, “Flexibility-tuning of dual-display DNA-encoded chemical libraries facilitates cyclic peptide ligand discovery” (Nature Communications, 2025)
Where two headings read alike, the source gives them in different places.

Columns and labels:
streptavidin = streptavidin (Streptomyces avidinii, UniProt P22629); test: biochemical; type: binding
Description: (§1) LNA5 and LNA3 conjugates were hybridized by mixing 25 µL of LNA5 (2 µM) and 25 µL of LNA3 (2 µM) conjugates in water and heating to 70 °C for 5-10 min. After cooling down the solution to room temperature, 950 µL of 1x PBS was added to the LNA solution. The hybridized LNA conjugates were then tested via fluorescence polarization.
If the LNA conjugates were clicked together, they were diluted to 1 µM, 50 µL of a clicked conjugate was diluted with 950 µL 1x PBS and tested by fluorescence polarization.
(§2) Separately, a 16-point serial dilution of protein was performed in PBS in PCR tubes. 4 µL of the 50 nM conjugate was mixed with 4 µL of each protein dilution in black 384-well plates to a final volume of 8 µL. The plate was incubated for 30 min in the dark and centrifuged briefly to remove bubbles. Fluorescence anisotropy was measured at 535 nm. Data was fitted using Prism 10. Raw data from experimental FP measurements can be found in Supplementary Information, section 7.1.
7.1. Fluorescence Polarization
as §1, with “mQ” for “water”, “polarization experiment.” for “polarization.”
If the LNA conjugates were clicked together, they were diluted to 1 µM, 50 µL of a clicked conjugate could then be taken, diluted with 950 µL 1x PBS and tested via fluorescence […]
All other off-DNA fluoresceinated compounds were diluted to 50 nM in 1xPBS containing 5% […]
as §2, with “Data was obtained and fitted using” for “Data was fitted using”, “Prism 10.” for “Prism 10. Raw data from experimental FP measurements can be found in Supplementary Information, section 7.1.”

[1] = target: T1, placental alkaline phosphatase (PLAP) (Homo sapiens, UniProt P05187); test: PLAP inhibition assay (pNPP substrate); type: biochemical; conditions: off-DNA
T1 construct: AviTag (biotinylated in vitro by BirA); 6xHis-tag; made in house; host or cells: Chinese hamster ovary (CHO) cells
Description: For the PLAP inhibition assay, 500 µM of inhibitor was used for a 16-point serial dilution in 10% DMSO/activation buffer in PCR tubes. Separately, a 12.5 nM solution of PLAP and a 4.5 mM solution of p-nitrophenylphosphate (pNPP) were prepared in activation buffer (see below). 8 µL of each inhibitor dilution was mixed with 16 µL of enzyme solution and 16 µL of pNPP solution and gently mixed. The assay was allowed to develop in the dark for 30 min (activation buffer pH10: 150 mM diethanolamine, 1 mM MgCl2, 60 mM ZnCl2 in water, pH 9.8) or 1 hour (activation buffer pH9: 150 mM Tris, 1 mM MgCl2, 60 mM ZnCl2 in water, pH 9.0). 50 µL of 2 M NaOH was then added to quench the reaction. Readout was performed to detect 405 nm vs 620 nm absorption. Data was fitted using Prism 10. Raw data from PLAP measurements can be found in Supplementary Information, section 7.2.2.
Human alpha-thrombin was obtained from Prolytix (Haematologic Technologies) - BioConnect Website and used in FP and inhibition assays. Biotinylated thrombin used for selections was obtained from Sigma Aldrich.
The recombinant human placental alkaline phosphatase (hPLAP) labelled with AviTag™ and 6xHis-tag was produced in Chinese hamster ovary (CHO) cells and was purified by Ni-NTA affinity chromatography and size-exclusion chromatography. The in-vitro biotinylation of the protein is mediated by BirA protein system. “Early-fraction” is the final material used for fluorescence polarization and inhibition experiments.
Figure S32: Quality characterization of recombinant hPLAP. A. The size exclusion chromatogram of purifying recombinant hPLAP expressed in CHO cells after Ni-NTA affinity chromatography purification and biotinylation. […] The absorbances at 450nm were measured with/without the presence of hPLAP and/or human PLAP antibody. […]
Protocol was adapted from Habeshian et al. 12. […] Fluorescence (excitation at 360 nm, emission at 465 nm) was measured every 3 min for 30 min. […] Data was measured in triplicate. […]
and gently mixed. […] Readout was performed to detect 405 nm vs 620 nm absorption. […]

[2] = pH not printed with the values, pH 9 implied by b30, mean of n=3, read-out: IC50

T1 sequence (P05187 23-506 limits assumed): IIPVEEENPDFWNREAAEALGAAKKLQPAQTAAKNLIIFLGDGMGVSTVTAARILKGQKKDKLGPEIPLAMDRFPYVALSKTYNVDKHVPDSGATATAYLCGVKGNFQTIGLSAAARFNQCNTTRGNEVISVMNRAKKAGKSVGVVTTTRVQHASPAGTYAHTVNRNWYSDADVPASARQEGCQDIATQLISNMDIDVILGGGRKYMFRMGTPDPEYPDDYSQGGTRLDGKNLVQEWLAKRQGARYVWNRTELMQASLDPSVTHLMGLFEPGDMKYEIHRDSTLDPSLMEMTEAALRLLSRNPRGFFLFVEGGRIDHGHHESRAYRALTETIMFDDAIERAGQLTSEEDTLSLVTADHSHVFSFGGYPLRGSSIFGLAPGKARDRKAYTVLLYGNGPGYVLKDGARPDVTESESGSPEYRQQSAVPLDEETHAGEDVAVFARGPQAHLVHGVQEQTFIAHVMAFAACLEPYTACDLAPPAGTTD

| IC50 ([1]; pH 10 (activation buffer pH 9.8), read-out: IC50 (determined fit)) [nM] | IC50 [1, 2] [nM] | Compound | Kd (streptavidin) [nM] |
| --- | --- | --- | --- |
| – | – | CC(C)C[C@H](C(=O)N1Cc2cc(C(=O)N[C@@H](CSCC(N)=O)C(=O)NCCCCCC(=O)N[C@@H](CCCCNC(=O)c3ccc4c(c3)C(=O)OC43c4ccc(O)cc4Oc4cc(O)ccc43)C(N)=O)sc2C1)n1cc(CN2CCC[C@H]2C(=O)N[C@H](CC2CCCCC2)C(=O)N[C@@H](CSCC(N)=O)C(N)=O)nn1 [Compound 7-L0] | 173 |
| – | – | CC(C)C[C@@H]1C(=O)N2Cc3cc(sc3C2)C(=O)N[C@H](C(=O)NCCCCCC(=O)N[C@@H](CCCCNC(=O)c2ccc3c(c2)C(=O)OC32c3ccc(O)cc3Oc3cc(O)ccc32)C(N)=O)CSCCS(=O)(=O)CS(=O)(=O)CCSC[C@@H](C(N)=O)NC(=O)[C@@H](CC2CCCCC2)NC(=O)[C@@H]2CCCN2Cc2cn1nn2 [Compound 7-L1] | > 5000 |
| – | – | CC(C)C[C@@H]1C(=O)N2Cc3cc(sc3C2)C(=O)N[C@H](C(=O)NCCCCCC(=O)N[C@@H](CCCCNC(=O)c2ccc3c(c2)C(=O)OC32c3ccc(O)cc3Oc3cc(O)ccc32)C(N)=O)CSCc2ccc(cc2)CSC[C@@H](C(N)=O)NC(=O)[C@@H](CC2CCCCC2)NC(=O)[C@@H]2CCCN2Cc2cn1nn2 [Compound 7-L2] | > 5000 |
| – | – | CC(C)C[C@@H]1C(=O)N2Cc3cc(sc3C2)C(=O)N[C@H](C(=O)NCCCCCC(=O)N[C@@H](CCCCNC(=O)c2ccc3c(c2)C(=O)OC32c3ccc(O)cc3Oc3cc(O)ccc32)C(N)=O)CSCc2cccc(c2)CSC[C@@H](C(N)=O)NC(=O)[C@@H](CC2CCCCC2)NC(=O)[C@@H]2CCCN2Cc2cn1nn2 [Compound 7-L3] | > 5000 |
| – | – | CC(C)C[C@@H]1C(=O)N2Cc3cc(sc3C2)C(=O)N[C@H](C(=O)NCCCCCC(=O)N[C@@H](CCCCNC(=O)c2ccc3c(c2)C(=O)OC32c3ccc(O)cc3Oc3cc(O)ccc32)C(N)=O)CSC/C=C/CSC[C@@H](C(N)=O)NC(=O)[C@@H](CC2CCCCC2)NC(=O)[C@@H]2CCCN2Cc2cn1nn2 [Compound 7-L4] | > 5000 |
| – | – | CC(C)C[C@@H]1C(=O)N2Cc3cc(sc3C2)C(=O)N[C@H](C(=O)NCCCCCC(=O)N[C@@H](CCCCNC(=O)c2ccc3c(c2)C(=O)OC32c3ccc(O)cc3Oc3cc(O)ccc32)C(N)=O)CSC/C=C\CSC[C@@H](C(N)=O)NC(=O)[C@@H](CC2CCCCC2)NC(=O)[C@@H]2CCCN2Cc2cn1nn2 [Compound 7-L5] | > 5000 |
| – | – | NC(=O)CSC[C@H](NC(=O)[C@@H](CC1CCCCC1)NC(=O)[C@@H]1CCCN1Cc1cn([C@H](CC2CCC2)C(=O)N2Cc3cc(C(=O)N[C@@H](CSCC(N)=O)C(=O)NCCCCCC(=O)N[C@@H](CCCCNC(=O)c4ccc5c(c4)C(=O)OC54c5ccc(O)cc5Oc5cc(O)ccc54)C(N)=O)sc3C2)nn1)C(N)=O [Compound 8-L0] | 118 |
| 21000 | 2500 | NC(=O)CSC[C@H](NC(=O)C[C@H](Cc1ccccc1Cl)NC(=O)[C@@H](N)Cc1ccccc1Cl)C(=O)NCCCCCC(=O)N[C@@H](CCCCNC(=S)Nc1ccc2c(c1)C(=O)OC21c2ccc(O)cc2Oc2cc(O)ccc21)C(N)=O [Compound 21] | – |
| – | 1430 | C#CCN1CCC[C@H]1C(=O)N[C@H](CC(=O)N[C@@H](CSC1CC(=O)N(CCN2C(=O)CC(SC[C@H](NC(=O)C[C@H](Cc3ccccc3Cl)NC(=O)[C@@H](N)Cc3ccccc3Cl)C(=O)NCCCCCC(=O)N[C@@H](CCCCNC(=S)Nc3ccc4c(c3)C(=O)OC43c4ccc(O)cc4Oc4cc(O)ccc43)C(N)=O)C2=O)C1=O)C(N)=O)Cc1ccccc1Cl (stereo partly shown) [Compound 22] | – |
